Laboratory results reported in PubChem BioAssay (NCI).
Where “and” joins values, the source holds several entries; their conditions need not be identical. Equal entries are not always repeated.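 Grown in 96-well plates, cells were treated for 48 hours with each compound at five concentrations. Insufficient inhibition: endpoint recorded as highest concentration tested. GI50: concentration for 50% inhibition of growth. TGI: total growth inhibition.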

Experiments:
Assay in all cases: inhibition of tumour cell growth, NCI panel, 48 h
A498 renal = test system: A498 renal
A549 NSCLC = test system: A549 NSCLC
EKVX NSCLC = test system: EKVX NSCLC
HL-60(TB) leukemia = test system: HL-60(TB) leukemia
KM12 colon = test system: KM12 colon
NCI-H226 lung = test system: NCI-H226 lung
NCI-H460 lung = test system: NCI-H460 lung
OVCAR-5 ovarian = test system: OVCAR-5 ovarian
OVCAR-8 ovarian = test system: OVCAR-8 ovarian
UO-31 renal = test system: UO-31 renal
HCC-2998 colon = test system: HCC-2998 colon
NCI/ADR-RES ovarian = test system: NCI/ADR-RES ovarian

Row | Structure (SMILES) | TGI (A498 renal) | TGI (A549 NSCLC) | TGI (EKVX NSCLC) | TGI (HL-60(TB) leukemia) | TGI (KM12 colon) | TGI (NCI-H226 lung) | TGI (NCI-H460 lung) | TGI (OVCAR-5 ovarian) | TGI (OVCAR-8 ovarian) | TGI (UO-31 renal) | TGI (HCC-2998 colon) | TGI (NCI/ADR-RES ovarian) | GI50 (EKVX NSCLC) | GI50 (HCC-2998 colon) | GI50 (KM12 colon) | GI50 (NCI-H460 lung) | GI50 (NCI/ADR-RES ovarian) | GI50 (OVCAR-5 ovarian) | GI50 (OVCAR-8 ovarian) | GI50 (UO-31 renal)
1 | Cc1ccc(N=NC(C2=NC(=O)CS2)c2nc3ccccc3[nH]2)cc1 (stereo not drawn) | > 100 µM | > 100 µM | > 100 µM | > 100 µM | > 100 µM | > 100 µM | > 100 µM | > 100 µM | > 100 µM | > 100 µM |  |  |  |  |  |  |  |  |  | 
2 | Cc1c2cc[n+](C)cc2c(C)c2c1oc1ccccc12 | > 69 µM | 36.5 µM | > 42.3 µM | > 73.2 µM | 11.6 µM | 10.1 µM | 16.7 µM | 64 µM | 29.8 µM | > 100 µM | 12.3 µM | > 100 µM |  |  |  |  |  |  |  | 
3 | COC(=O)NC1C(C)OC(OC2C/C=C(/C)C3C=CC4C(OC5CC(OC6CC(OC7CC(O)C(O)C(C)O7)C(OC7CC(O)C(OC)C(C)O7)C(C)O6)C(O)C(C)O5)C(C)CC(C)C4C3(C)/C(O)=C3\C(=O)OC4(CC(C)C(CO)=CC4/C=C\2C)C3=O)CC1(C)[N+](=O)[O-] (stereo not drawn) | 57.9 µM | > 100 µM | 42.8 µM | 11.4 µM | 20.5 µM |  | 4.86 µM | 42.1 µM | 33.4 µM | 51.3 µM | 18.9 µM | > 100 µM |  |  |  |  |  |  |  | 
4 | CCSc1nc(-c2cccs2)nc2ccc(I)cc12 |  | > 100 µM | > 100 µM | > 100 µM | > 100 µM | > 100 µM | > 100 µM | > 100 µM | > 100 µM | > 100 µM | > 100 µM | > 100 µM |  |  |  |  |  |  |  | 
5 | CCCCCCCN(CCCCCCC)CC(O)c1cc2ccccc2c2cc(Br)ccc12 (stereo not drawn) | > 100 µM |  | > 100 µM | > 100 µM |  |  | > 100 µM | > 100 µM | > 100 µM | > 100 µM | 45.7 µM | > 100 µM |  |  |  |  |  |  |  | 
6 | Cc1[nH]n(-c2ccccc2)c(=O)c1C(N(CCc1ccccc1)C1=NCC(C)S1)(C(F)(F)F)C(F)(F)F (stereo not drawn) | 30.9 µM | 83.7 µM | 36.4 µM | 52.5 µM | > 100 µM | 29.5 µM | 38.2 µM | 88 µM |  | 25.3 µM | 34 µM | 89 µM |  |  |  |  |  |  |  | 
7 | COC(=O)c1ccccc1C1=C([N+](=O)[O-])C(c2cccc(Br)c2)C(C#N)=C(N)O1 (stereo not drawn) |  | > 100 µM | 97.7 µM | 70.6 µM |  | > 100 µM | > 100 µM | > 100 µM | 45.1 µM |  | > 100 µM | 65.9 µM |  |  |  |  |  |  |  | 
8 | COc1cc([N+](=O)[O-])ccc1NC(=O)c1cccc([N+](=O)[O-])c1O | 51.7 µM | 66.6 µM | 78.8 µM | 55.4 µM | > 100 µM | > 100 µM | > 100 µM | > 100 µM | > 100 µM | 56.5 µM | > 100 µM |  |  |  |  |  |  |  |  | 
9 | CCc1ccc2c(c1)C(=O)c1c-2n(CCCN)c(=O)c2cc([N+](=O)[O-])ccc12 |  |  | 3.11 µM |  | 2.43 µM |  | 0.504 µM | 3.59 µM | 2.35 µM | 2.69 µM | 1.12 µM | 3.29 µM | 1.67 µM | 0.376 µM | 1.02 µM | 0.167 µM | 1.62 µM | 2.07 µM | 1.02 µM | 1.38 µM
10 | N=C(N)SCc1cccc([N+](=O)[O-])c1 | > 74 µM | > 100 µM | > 100 µM | 43.6 µM | > 31.6 µM | 67.2 µM | > 100 µM | > 100 µM | > 67 µM | > 77.8 µM | > 100 µM | 48.3 µM |  |  |  |  |  |  |  | 
11 | CC1(C=O)CCC23COC4(CCC5C6(C)CCC(OC7OCC(OC8OC(CO)C(O)C(OC9OC(CO)C(O)C(O)C9O)C8OC8OCC(O)C(O)C8O)C(O)C7OC7OC(CO)C(O)C(O)C7O)C(C)(C)C6CCC5(C)C4(C)CC2O)C3C1 (stereo not drawn) | 1.94 µM | 3.53 µM | 2.89 µM | 1.41 µM | 1.42 µM | 3.47 µM | 2.55 µM | 2.55 µM | 1.48 µM | 2.8 µM | 2.17 µM | 1.05 µM |  |  |  |  |  |  |  | 
12 | CN(C)CCCN1c2ccc([N+](=O)[O-])cc2CCc2cc([N+](=O)[O-])ccc21 | 22.5 µM | 32.7 µM and 31.5 µM | 28.5 µM and 29.4 µM | 31 µM and 30.1 µM | 28.6 µM and 33.1 µM | 32.8 µM and 33.4 µM | 30 µM and 26.2 µM | 28.6 µM and 28 µM | 29.5 µM and 30 µM | 37.4 µM and 25 µM | 21.9 µM and 24.7 µM | 30.8 µM and 32.6 µM |  |  |  |  |  |  |  | 
13 | c1ccc([P+](c2ccccc2)(c2ccccc2)c2ccc(-c3ccc([P+](c4ccccc4)(c4ccccc4)c4ccccc4)cc3)cc2)cc1 | 10.3 µM | 87.9 µM | > 100 µM | > 100 µM | > 100 µM | 71 µM | > 100 µM | > 100 µM | 85.5 µM |  | > 100 µM | > 100 µM |  |  |  |  |  |  |  | 
14 | C[n+]1c2ccccc2c(CNC(CS)C(=O)O)c2ccccc21 (stereo not drawn) | 53.8 µM | 83.9 µM | > 100 µM | 43.4 µM | 57.5 µM | 82.1 µM | 47.9 µM | > 100 µM | 75 µM | 58 µM | > 100 µM |  |  |  |  |  |  |  |  | 
